Data as given in the NIST ThermoML archive (doi:10.1021/acs.jced.8b00120).
± gives the expanded uncertainty stated by the source.

Tests used:
[1] = 298.15 K; 101.33 kPa; Liquid; Buoyancy - hydrostatic balance
[2] = refractive index (Na D-line) (dimensionless); details: 298.15 K; 101.33 kPa; Liquid; Standard Abbe refractometry

Compound	mass density [1] [kg/m3]	refractive index [2]
CC(C)CO [2-methyl-1-propanol]	801.652 ± 10	1.394 ± 0.0011
CC(=O)CC(C)C [4-methylpentan-2-one]	800.589 ± 10	1.3964 ± 0.0011
CCCCO [butan-1-ol]	805.881 ± 10	1.3975 ± 0.0011
CC#N [acetonitrile]	785.712 ± 10	1.3452 ± 0.001

The next lines start with the values.

mass density [1] [kg/m3]	refractive index [2]	Compound
864.115 ± 10	1.4907 ± 0.0011	CC(C)c1ccccc1 [isopropylbenzene]
	1.3324 ± 0.001	O [water]
944.689 ± 10	1.4279 ± 0.0011	CN(C)C=O [dimethylformamide]
791.814 ± 10	1.3279 ± 0.0011	CO [methanol]
